Experimental data: paper PMC12430429, “Synthesis, Structure, DNA/BSA Binding, DNA Cleaving, Cytotoxic and SOD Mimetic Activities of Copper(II) Complexes Derived from Methoxybenzylamine Schiff Base Ligands” (Molecules, 2025)

Assays:
S. cerevisiae cells = test: Resazurin cytotoxicity assay (mitochondrial activity); type: cell-based; settings: for Cell Death (%) / Reduction Percentage (%): 3 h incubation
Text: The resazurin-based model that monitors mitochondrial activity is widely used as an indicator of cell viability, proliferation and cytotoxicity. This method is based on the reduction of resazurin to resorufin by mitochondrial enzymes, as carriers of diaphorase activities, like NADPH-dehydrogenase, which are responsible for the transference of electrons from NADPH^+, H^+ to resazurin. The reduction of resazurin correlates with the number of live bacterial or mammalian cells or fungi. Furthermore, S. cerevisiae is an established model system for eukaryotic organisms. They have conserved cellular processes with high homology to those of humans. They proliferate rapidly and are even used as a model to study the effects of anticancer agents. The use of S. cerevisiae in resazurin redox testing is a good alternative to conventional cell viability testing techniques.
The assay is based on the ability of living cells to reduce blue resazurin (7-hydroxy-3H-phenoxazin-3-one 10-oxide) to pink resorufin (7-hydroxy-3H-phenoxazin-3-one) which is measurable by the UV–Vis spectrophotometric or fluorometric method (AlamarBlue^TM). Living cells have active N-methylphenazinium methosulfate that catalyzes the redox reaction in mitochondria of NADH and blue resazurin to produce pink resorufin (Scheme 2). This test is used as an oxidation–reduction indicator in cell viability assays for yeasts and mammalian cells. Reduction of the dye by viable cells decreases the amount of the oxidized form (blue) and, at the same time, increases the amount of its fluorescent intermediate (pink), indicating the degree of cytotoxicity caused by the test material.
S. cerevisiae cells (CCY 21-4-64; Libáň, Czech Republic) were cultured at 28 °C/24h on Saburaud’s dextrose agar with chloramphenicol (Merck, Boston, MA, USA). Subsequently, after 24 h, S. cerevisiae cells were inoculated into sterile liquid YPD medium (Sigma–Aldrich, St. Louis, MO, USA) and cultivation continued at 28 °C/24 h. In the exponential growth phase, cells were centrifuged (8.000 g/3 min), washed twice with sterile physiological solution (0.9% NaCl) and pipetted at a concentration of 1 × 10^9 cells/mL in sterile microtubes (modified procedure from Bitacura, 2018). Sterile physiological solution and copper complexes at concentrations of 1 × 10^−3 M, 3 × 10^−3 M and 5 × 10^−3 M were added to the centrifuged biomass to a total volume of 1 mL and individual samples were cultured in an incubator at 28 °C/3 h. After 3 h, 0.1 mL of ResazurinOX (in vitro toxicology assay kit based on resazurin, Sigma, USA) was added to each sample and the samples were allowed to culture for 2 h. After incubation, the biomass in the samples was separated from the supernatant by centrifugation (8000 g/5 min). The separated solution was diluted in a ratio of 1:1 with physiological solution and subjected to the measurement of UV spectra by the spectrophotometric method according to the recommended protocol of the kit manufacturer (Sigma, USA) on a GENESYS 10S UV–Vis spectrophotometer (Thermo Scientific, USA) in the range of 500–800 nm, using a 1 cm long cuvette.
Cells’ innate metabolic was measured by using an established formula for the reduction percentage. The reduction percentage was calculated using the following formula:(7) Red(%)=ƐOX_600 nm×A570 nm_sample−ƐOX_570 nm×A600 nm_sample/ƐRED_570 nm×A600 nm_C−−ƐRED_600 nm×A570 nm_C−×100

[1] = molecular target: bovine serum albumin (BSA) (Bos taurus, UniProt P02769); test: Bovine serum albumin binding (tryptophan fluorescence quenching); settings: for dynamic quenching constant Ksv / quenching constant kq: BSA 3 μM, citrate buffer pH 7.0; for association binding constant KBSA / n (number of binding sites for albumin): Scatchard equation
Chain of bovine serum albumin (BSA) (P02769 25-607): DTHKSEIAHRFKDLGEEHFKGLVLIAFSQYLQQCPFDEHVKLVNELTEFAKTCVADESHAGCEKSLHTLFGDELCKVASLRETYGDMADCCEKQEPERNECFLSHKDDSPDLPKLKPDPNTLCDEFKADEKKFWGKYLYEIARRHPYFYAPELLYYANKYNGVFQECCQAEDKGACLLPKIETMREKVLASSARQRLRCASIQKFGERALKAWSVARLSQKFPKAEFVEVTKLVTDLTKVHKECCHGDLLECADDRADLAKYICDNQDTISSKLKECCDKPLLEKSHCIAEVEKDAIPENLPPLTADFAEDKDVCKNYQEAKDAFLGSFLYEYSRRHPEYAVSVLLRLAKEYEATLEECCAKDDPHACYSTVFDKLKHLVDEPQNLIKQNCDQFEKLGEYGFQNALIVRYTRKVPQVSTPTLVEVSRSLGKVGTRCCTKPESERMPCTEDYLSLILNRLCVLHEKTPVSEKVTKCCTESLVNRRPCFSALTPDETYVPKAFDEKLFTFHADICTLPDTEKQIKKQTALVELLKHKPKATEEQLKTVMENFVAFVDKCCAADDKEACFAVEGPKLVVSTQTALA
Description: The fluorescence emission spectra of BSA show intense fluorescence emission at 336 nm upon excitation at 280 nm. This is due to the presence of two tryptophan residues (Trp134 and Trp212). Fluorescence quenching data were analyzed to obtain various binding parameters for the interaction of complexes 4a–c with BSA.
The interaction of complexes with serum albumin was characterized by the Stern–Volmer constant Ksv and the quenching constant kq, which was calculated using the Stern–Volmer equation (Figure S4-2) together with the associate binding constant KBSA and the number of binding sites per albumin n determined from the Scatchard equations (Equation (6), Figure S4-3); the values are summarized in Table 6.
The BSA binding of complexes 4a–c was studied by tryptophan fluorescence emission quenching experiments using BSA (3 μM) in citrate buffer solution (containing 15 mM trisodium citrate and 150 mM sodium chloride at pH 7.0). The emission intensity quenching of BSA tryptophan residues at 336 nm was measured by increasing the concentration of the quencher complexes 4a–c. The concentration of the added complexes ranged from 0 to 0.2 mM. The fluorescence emission spectra were recorded in the 300–420 nm range and with an excitation wavelength of 280 nm. The values of the Stern–Volmer constant KSV (in M^−1), the BSA binding constant K (in M^−1) for the compound–BSA interaction and the BSA quenching constant kq (in M^−1 s^−1) have been calculated from the Stern–Volmer (Equations (2)–(4)). and Scatchard equations (Equation (6)):(6) ΔI/Io/[Q]=nK−KΔI/Io
The BSA binding constant K (in M^−1) can be calculated from the slope of the Scatchard plots, and the number of binding sites per albumin (n) is given by the ratio of the y intercept to the slope.

Row | Compound | Cell Death (%) (S. cerevisiae cells; complex 1 mM) | Reduction Percentage (%) (S. cerevisiae cells; complex 1 mM) | Cell Death (%) (S. cerevisiae cells; complex 3 mM) | Reduction Percentage (%) (S. cerevisiae cells; complex 3 mM) | Cell Death (%) (S. cerevisiae cells; complex 5 mM) | Reduction Percentage (%) (S. cerevisiae cells; complex 5 mM) | dynamic quenching constant Ksv [1] | quenching constant kq [1] | association binding constant KBSA [1] | n (number of binding sites for albumin) [1] | cytotoxic activity (cell death) (S. cerevisiae cells; over the tested concentrations 1–5 mM)
1 | COc1cccc(CN=Cc2ccccc2[O][Cu][O]c2ccccc2C=NCc2cccc(OC)c2)c1 [Complex 4b, [Cu (Sal-3-MeOBn)2]] | 76.0% | 24.0% | 92.6% | 7.4% | 99.0% | 1.0% | 6.39 (±0.06) M^−1 × 10^4 | 6.39 (±0.06) M^−1s^−1 × 10^12 | 5.37 (±0.25) M^−1 × 10^4 | 0.94 | –
2 | COc1ccc(CN=Cc2ccccc2[O-])cc1.COc1ccc(CN=Cc2ccccc2[O-])cc1.[Cl-].[Cl-].[Cu+2].[Cu+2] [Complex 4c, [Cu2 (Sal-4-MeOBn)2 Cl2]] | – | 5.2% | 91.5% | 8.5% | 97.4% | 2.6% | 4.86 (±0.15) M^−1 × 10^4 | 4.86 (±0.15) M^−1s^−1 × 10^12 | 4.77 (±0.20) M^−1 × 10^4 | 1.16 | above 94%
3 | COc1ccccc1CN=Cc1ccccc1[O-].COc1ccccc1CN=Cc1ccccc1[O-].[Cl-].[Cl-].[Cu+2].[Cu+2] [Complex 4a, [Cu2 (Sal-2-MeOBn)2 Cl2]] | 67.1% | 32.9% | 91.6% | 8.4% | 96.5% | 3.5% | 7.16 (±0.03) M^−1 × 10^4 | 7.16 (±0.03) M^−1s^−1 × 10^12 | 6.66 (±0.30) M^−1 × 10^4 | 1.03 | –
